In the experiment the target is T1, glucocorticoid receptor (Homo sapiens, UniProt P04150).
T1 construct: endogenous in cells
T1 sequence (P04150 1-777): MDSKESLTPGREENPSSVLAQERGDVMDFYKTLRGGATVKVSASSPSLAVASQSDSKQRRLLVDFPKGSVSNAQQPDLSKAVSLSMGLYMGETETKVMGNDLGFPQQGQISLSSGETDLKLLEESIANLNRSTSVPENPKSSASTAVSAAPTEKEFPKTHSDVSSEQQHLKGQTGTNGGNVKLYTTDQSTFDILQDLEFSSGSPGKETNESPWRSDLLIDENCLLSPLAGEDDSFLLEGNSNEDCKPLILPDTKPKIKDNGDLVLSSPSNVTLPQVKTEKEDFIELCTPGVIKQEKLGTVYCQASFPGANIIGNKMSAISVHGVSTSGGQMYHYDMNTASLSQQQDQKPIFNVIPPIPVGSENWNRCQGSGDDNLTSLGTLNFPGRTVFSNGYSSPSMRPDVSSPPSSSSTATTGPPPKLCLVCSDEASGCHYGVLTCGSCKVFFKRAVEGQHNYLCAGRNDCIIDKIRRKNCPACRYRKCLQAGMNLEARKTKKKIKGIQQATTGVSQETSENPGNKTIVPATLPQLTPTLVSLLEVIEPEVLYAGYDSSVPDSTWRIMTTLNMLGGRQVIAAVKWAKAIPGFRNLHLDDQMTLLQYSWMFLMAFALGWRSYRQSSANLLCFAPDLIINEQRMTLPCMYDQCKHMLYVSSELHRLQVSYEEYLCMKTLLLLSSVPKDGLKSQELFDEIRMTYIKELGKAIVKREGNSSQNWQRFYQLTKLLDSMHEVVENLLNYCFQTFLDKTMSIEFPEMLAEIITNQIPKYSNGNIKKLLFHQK
As to the kind of experiment: Ligand binding assay (GR BIND). The gist of the method: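 Cytosol from freeze–thawed cells in TEGM (pH 7.2, 10 mM molybdate) was incubated overnight at 4 °C with compound and [3H]-dexamethasone trace (added as 6 nM solution), 2% EtOH final. Bound ligand was captured on hydroxylapatite, filtered, washed and scintillation counted. Values were calculated with dexamethasone as reference.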
As to `COC(=O)c1ccccc1CCN(C[C@H]1CCC2=Cc3c(cnn3-c3ccc(F)cc3)C[C@@]21C)S(=O)(=O)CC(F)(F)F` [Example 159, methyl 2-(2-{{[(4αR,5S)-1-(4-fluorophenyl)-4α-methyl-1,4,4α,5,6,7-hexahydrocyclopenta[f]indazol-5-yl]methyl}[(2,2,2-trifluoroethyl)sulfonyl]amino}ethyl)benzoate], the affinity, expressed as Ki, was 1.9 nM. As to `COC(=O)c1cc(Cl)ccc1CCN(C[C@H]1CCC2=Cc3c(cnn3-c3ccc(F)cc3)C[C@@]21C)S(=O)(=O)CC(F)(F)F` [Example 160, methyl 5-chloro-2-(2-{{[(4αR,5S)-1-(4-fluorophenyl)-4α-methyl-1,4,4α,5,6,7-hexahydrocyclopenta[f]indazol-5-yl]methyl}[(2,2,2-trifluoroethyl)sulfonyl]amino}ethyl)benzoate], affinity was put at a Ki of 3.4 nM. Compared with the last compound, the Ki is about 1.8-fold higher. With `Cc1noc(C)c1S(=O)(=O)NC[C@H]1CCC2=Cc3c(cnn3-c3ccc(F)cc3)C[C@@]21C` [Example 161, N-{[(4αR,5S)-1-(4-fluorophenyl)-4α-methyl-1,4,4α,5,6,7-hexahydrocyclopenta[f]indazol-5-yl]methyl}-3,5-dimethylisoxazole-4-sulfonamide] the figure was 4.8 nM. Turning to `COC(=O)c1ccccc1CS(=O)(=O)N(CC(O)C(F)(F)F)C[C@H]1CCC2=Cc3c(cnn3-c3ccc(F)cc3)C[C@@]21C` (stereo partly drawn) [Example 162, methyl 2-({[{[(4αR,5S)-1-(4-fluorophenyl)-4α-methyl-1,4,4α,5,6,7-hexahydrocyclopenta[f]indazol-5-yl]methyl}(3,3,3-trifluoro-2-hydroxypropyl)amino]sulfonyl}methyl)benzoate], the Ki (commonly a dissociation constant, usually derived from enzyme kinetics or from competition with a known ligand) stood at 0.5 nM.

In turn, `C[C@]12Cc3cnn(-c4ccc(F)cc4)c3C=C1CC[C@@H]2CN(CCc1ccccc1CO)S(=O)(=O)CC(F)(F)F` [Example 163, 2,2,2-trifluoro-N-{[(4αR,5S)-1-(4-fluorophenyl)-4α-methyl-1,4,4α,5,6,7-hexahydrocyclopenta[f]indazol-5-yl]methyl}-N-{2-[2-(hydroxymethyl)phenyl]ethyl}ethanesulfonamide] returned a Ki of 1.7 nM.

In the case of `C[C@]12Cc3cnn(-c4ccc(F)cc4)c3C=C1CC[C@@H]2CN(CC(O)C(F)(F)F)S(=O)(=O)Cc1ccccc1C(=O)O` (stereo partly drawn) [Example 164, 2-({[{[(4αR,5S)-1-(4-fluorophenyl)-4α-methyl-1,4,4α,5,6,7-hexahydrocyclopenta[f]indazol-5-yl]methyl}(3,3,3-trifluoro-2-hydroxypropyl)amino]sulfonyl}methyl)benzoic acid], the Ki is 3.2 nM. Regarding `C[C@]12Cc3cnn(-c4ccc(F)cc4)c3C=C1CC[C@@H]2CN(CCc1ccccn1)S(=O)(=O)Cc1ccccn1` [Example 165, N-{[(4αR,5S)-1-(4-fluorophenyl)-4α-methyl-1,4,4α,5,6,7-hexahydrocyclopenta[f]indazol-5-yl]methyl}-1-pyridin-2-yl-N-(2-pyridin-2-ylethyl)methanesulfonamide], the Ki is 1.6 nM. Against the preceding compound, the Ki is about 2-fold lower. `C[C@]12Cc3cnn(-c4ccc(F)cc4)c3C=C1CC[C@@H]2CN(CCc1ccccn1)S(=O)(=O)Cc1ccncc1` [Example 166, N-{[(4αR,5S)-1-(4-fluorophenyl)-4α-methyl-1,4,4α,5,6,7-hexahydrocyclopenta[f]indazol-5-yl]methyl}-1-pyridin-4-yl-N-(2-pyridin-2-ylethyl)methanesulfonamide] displayed an inhibitory constant (Ki) of 1.6 nM. In turn, `C[C@]12Cc3cnn(-c4ccc(F)cc4)c3C=C1CC[C@@H]2CN(CC(O)C(F)(F)F)S(=O)(=O)Cc1ccccc1C(N)=O` (stereo partly drawn) [Example 167, 2-({[{[(4αR,5S)-1-(4-fluorophenyl)-4α-methyl-1,4,4α,5,6,7-hexahydrocyclopenta[f]indazol-5-yl]methyl}(3,3,3-trifluoro-2-hydroxypropyl)amino]sulfonyl}methyl) benzamide] showed a Ki of 2.2 nM. The Ki values of the last two compounds are within 1.5-fold of each other. With `Cc1noc(C)c1S(=O)(=O)N(C[C@H]1CCC2=Cc3c(cnn3-c3ccc(F)cc3)C[C@@]21C)C[C@@H](C)O` [Example 168, N-{[(4αR,5S)-1-(4-fluorophenyl)-4α-methyl-1,4,4α,5,6,7-hexahydrocyclopenta[f]indazol-5-yl]methyl}-N-[(2R)-2-hydroxypropyl]-3,5-dimethylisoxazole-4-sulfonamide] the figure was 1.5 nM.

Source of the values: patent publication US8299048B2, “Hexahydrocyclopentyl[f]indazole sulfonamides and derivatives thereof as selective glucocorticoid receptor modulators” (Merck Sharp & Dohme Corp., priority 2008, dated 2012).
